The values below come from PMC8308508, “Hydralazine and Panobinostat Attenuate Malignant Properties of Prostate Cancer Cell Lines” (Pharmaceuticals, 2021).

Structures can show the parent of a compound that is named as a salt. Where two headings read alike, the source gives them in different places.

The test system of data set [1] is RWPE-1. Kind of data set: Cell viability assay (resazurin), dose-response. The following applies: Homo sapiens, RWPE-1, 72 h, RWPE-1, day 3, resazurin. The format is cell-based. As for the experimental part:
Briefly, PCa cell lines were seeded into 96-well plates at 5000 cells per well and incubated overnight at 37 °C in 5% CO2. Subsequently, cells were treated with a range of concentrations of each epidrug and their respective vehicle (dH2O for hydralazine; dimethyl sulfoxide (DMSO, Sigma-Aldrich, St. Louis, MO, USA) for panobinostat and culture medium for valproic acid) during three consecutive days, exchanging the medium every 24 h. Three experimental replicates of three biological replicates were used for each assay. The cell viability was evaluated using resazurin ([…] Biotech, Córdoba, Spain) at 0 h and 72 h of treatment. The culture medium was removed, and cells were incubated for three hours in the dark at 37 °C and 5% CO2 with 100 μL of 1:10 resazurin solution in culture medium. […] The OD values were corrected using resazurin solution as blank.
On the technique in general: The colour change of resazurin is a common sign of viable cells or microbes.

Data set [2] concerns WPMY-1. Kind of data set: Cell viability assay (resazurin), dose-response. The class given is cell-based. The following applies: Homo sapiens, WPMY-1, 72 h, WPMY-1, day 3, resazurin. As for the experimental part: (§1) Briefly, PCa cell lines were seeded into 96-well plates at 5000 cells per well and incubated overnight at 37 °C in 5% CO2. Subsequently, cells were treated with a range of concentrations of each epidrug and their respective vehicle (dH2O for hydralazine; dimethyl sulfoxide (DMSO, Sigma-Aldrich, St. Louis, MO, USA) for panobinostat and culture medium for valproic acid) during three consecutive days, exchanging the medium every 24 h. Three experimental replicates of three biological replicates were used for each assay.
(§2) The cell viability was evaluated using resazurin (Canvax Biotech, Córdoba, Spain) at 0 h and 72 h of treatment. The culture medium was removed, and cells were incubated for three hours in the dark at 37 °C and 5% CO2 with 100 μL of 1:10 resazurin solution in culture medium. […] The OD values were corrected using resazurin solution as blank.

Data set [3] concerns DU145. In words: Cell viability assay (resazurin), dose-response. The format is cell-based. The following applies: Homo sapiens, DU-145, 72 h, DU145, day 3, resazurin. As for the experimental part:
as §1, §2

For data set [4], the system named is LNCaP. In words: Cell viability assay (resazurin), dose-response. The class given is cell-based. The following applies: Homo sapiens, 72 h, day 3, resazurin. As for the experimental part:
as §1, §2

The subject of data set [5] is 22Rv1. Kind of data set: Cell viability assay (resazurin), dose-response. The class given is cell-based. The following applies: Homo sapiens, 22Rv1, 72 h, 22Rv1, day 3, resazurin. As for the experimental part:
as §1, §2

Data set [6] deals with PC-3. Kind of data set: Cell viability assay (resazurin), dose-response. The class given is cell-based. The following applies: Homo sapiens, 72 h; PC-3, day 3, resazurin. On the procedure: as §1, §2
The subject of data set [7] is DU145. The following applies: 3 days exposure, 7 additional days, Hydra 50 µM, Pano 5 nM. On the procedure: (§3) PCa cells were seeded in 6-well culture plates at specific concentrations for each cell line, as detailed in Table S1. After epidrug exposure, cells were incubated at 37 °C and 5% CO2 for 7 days and 10 days (LNCaP). Next, colonies were fixed in methanol (Supelco, Sigma-Aldrich, St. Louis, MO, USA), washed in PBS 1 × and stained with Hemacolor Solution II and III (Sigma-Aldrich, St. Louis, MO, USA). Three biological and three experimental replicates were used for each condition.

The subject of data set [8] is DU145. Kind of data set: Migration transwell assay. The format is cell-based, Human. The following applies: 24 h, Hydra 50 µM, Pano 5 nM, no significant differences. As for the experimental part:
(§4) Cell invasion and migration were determined using Falcon® Permeable Support for 24-well Plate with 8.0 µm Transparent PET Membrane (Corning, New York, NY, USA) and Nunc® Cell Culture Inserts in 24-well Nunclon Delta surface plate (Sigma-Aldrich, St. Louis, MO, USA), respectively. Briefly, cells were harvested after treatment and were added to the upper chamber in serum-free medium, according to its optimized density (2.5 × 10^4 cells for every cell line except from LNCaP and 22Rv1 with 5 × 10^4 cells). Media containing 10% FBS was added to the lower chamber. After 24 h incubation at 37 °C and 5% CO2, the cells remaining on the upper side of the membrane were removed with cotton swabs, and those on the lower surface of the membrane were fixed in methanol (Supelco, Sigma-Aldrich, St. Louis, MO, USA), washed in PBS 1 × and stained with Crystal Violet (Active motif, Carlsbad, CA, USA). All the inserts were photographed with stereomicroscope Olympus S2X16 using a digital camera Olympus SC180 (scale bar 1 mm) at 12.5 × magnification. Five fields within each insert were selected and photographed at 115 × and further counted using ImageJ software Cell Counter Plugin. The mean of the counted cells was calculated, divided by the area of the microscope viewing field and then multiplied by the entire area of the insert. Three biological replicates were used for each condition.

The subject of data set [9] is DU145. In words: Invasion transwell assay. The class given is cell-based, Human. The following applies: 24 h after seeding, Hydra 50 µM, Pano 5 nM, differences not statistically significant. On the procedure:
as §4

For data set [10] the following is noted: cited from earlier work.
The test system of data set [11] is DU145. Kind of data set: Alkaline comet assay. The format is cell-based, Human. As for the experimental part: After epidrug exposure, 30,000 cells were harvested by trypsinization, washed in PBS, re-suspended in 0.5% low-melting point agarose (w/v) and immediately placed on a microscope slide previously covered with 1% normal-melting point agarose (w/v). Then, the cells were immersed in lysis solution (2.5 M NaCl, 100 mM Na2EDTA, 10 mM Tris Base and 1% Triton X-100, pH 10) at 4 °C during 2 h in the dark. Afterwards, the slides were incubated in an alkaline electrophoresis buffer (300 mM NaOH, 1 mM Na2EDTA, pH 13) for 40 min at 4 °C to allow DNA unwinding. Single cell gel electrophoresis was performed on a horizontal electrophoresis platform for 30 min at 21 V, 300 mA, 4 °C. Next, slides were incubated in a neutralization buffer (0.4 M Tris-Base, pH 7.5) for 10 min, followed by staining with DAPI. Comet analysis was done using OpenComet v.1.3.1. Global DNA damage (SSB and DSB) evaluation was determined by measuring tail moment (tail % DNA × means of head × tail distance) and representative pictures taken with Olympus IX51 microscope at 200 × magnification (scale bar 50 μm). A sampling of at least 50 comets was included in the analysis. Three biological replicates were used for each condition.

The test system of data set [12] is DU145. In words: Proliferation assay (BrdU ELISA). The format is cell-based, Human. The following applies: day 3, Hydra 50 µM, Pano 5 nM, alone or combined, compared with the vehicle. For orientation: Incorporation of labelled thymidine or its analogues reports DNA synthesis.
Experimental: The cell proliferation ELISA BrdU (5-bromo-2′ deoxyuridine) assay (Roche Applied Sciences, Germany) was performed at 72 h of treatment. Cells were plated into 96-well plates at a density of 5000 cells per well, and at 0 h and 72 h of treatment, cells were incubated with 10 µM BrdU labeling solution for 8 h. After removing the culture medium, the cells were fixed with FixDenat solution for 30 min at room temperature. Then, the anti-BrdU-POD antibody (1:100) was added. After three washes with PBS 1 ×, the immune complexes were detected by the subsequent substrate reaction. The reaction product was quantified in a microplate reader (FLUOstar Omega, BMG Labtech, Ortenberg, Germany) at a wavelength of 450 nm with background subtraction at 690 nm. All ODs were normalized for the 0 h time point as well as to the vehicle. Three biological and three experimental replicates were used for each condition.
Data set [13] concerns PC-3. The following applies: 24 h after seeding, Hydra 100 µM, Pano 10 nM, differences not statistically significant. On the procedure: as §4
Data set [14] can be described thus: Clinical bioavailability and corresponding concentration at maximum clinical dose. The following applies: 200 mg/day. The format is in vivo.
The subject of data set [15] is DU145. Kind of data set: Synergy assay, 6 × 6 checkerboard, growth inhibition by resazurin, CI by CompuSyn. The format is cell-based. The following applies: Homo sapiens, DU-145, 72 h, three days. On the procedure:
Each plate contained 6 × 6 dose matrix blocks with several epidrug concentrations below and above each respective EC50 value. […] The combination index (CI) was calculated using CompuSyn software, where <1 indicates synergism, =1 is an additive effect and >1 indicates antagonism.

Data set [16] relates to PC-3. Kind of data set: Colony formation assay. The following applies: 3 days exposure, 7 additional days, Hydra 100 µM, Pano 10 nM. The class given is cell-based, Human. On the procedure: as §3
Data set [17] concerns LNCaP. Kind of data set: Colony formation assay. The class given is cell-based, Human. The following applies: 3 days exposure, 10 additional days, Hydra 100 µM, Pano 5 nM.
Data set [18] deals with RWPE-1. Kind of data set: Alkaline comet assay. The following applies: Pano 10 nM. The format is cell-based, Human. From the text:
Three biological replicates were used for each condition.

For orientation: EC50 means the concentration giving half of the maximal effect. Higher therefore signals a need for much substance. As to `CCCC(CCC)C(=O)O` [Valproic acid], the EC50 was 8970 µM in data set [1]; 4460 µM in [2]; 2000 to 3000 µM in data set [3]; 2000 to 3000 µM in [4]; 2000 to 3000 µM in data set [5]; 8540 µM in data set [6].

By bioavailability is commonly meant dose-corrected exposure relative to a reference, in per cent. By inhibition is commonly meant the percentage by which the read-out fell short of the control. On to `NNc1nncc2ccccc12` [Hydralazine, Hydralazine hydrochloride], for which the “colony formation (clonogenic capacity)” value in data set [7] is listed as “almost no colonies were apparent”. Moreover, the “cell migration (transwell)” value in [8] is “reduced cell migration”. The “cell invasion (transwell)” value in data set [9] was “reduced invasion”; in [13], “two times higher than that of panobinostat”. The figures for the bioavailability in data set [10] (fast acetylators) and in [10] (slow acetylators) were 16% and 35%, respectively. Moreover, in [11], the “DNA damage (tail moment, comet assay)” value is “increased DNA damage”. The EC50 in data set [3] stood at 50 µM; in [4], 87.5 µM; in data set [5] it was 73.1 µM; in [6], 143 µM. For the same compound, the “cell proliferation (BrdU incorporation)” value in data set [12] was “considerable proliferation inhibition”. For the same compound, the “concentration corresponding to the maximum clinically recommended dose” value was roughly 0.2 M in [14] (bioavailability 16%, fast acetylators) and roughly 0.44 M in data set [14] (bioavailability 35%, slow acetylators). In addition, the inhibition at 50 µM in [15] (hydralazine alone at the selected concentration (50 µM, Table 1)) came to 42.8%.

Regarding `Cc1[nH]c2ccccc2c1CCNCc1ccc(/C=C/C(=O)NO)cc1` [Panobinostat], the colony formation result in data set [16] and in data set [17] was “showed a higher impact” throughout. Further, the “cell invasion (transwell)” value in [9] is reported as “but not panobinostat, also reduced invasion”. Besides, the bioavailability in [10] is listed as 21.4%. Further, in [11] (DU145, Hydra 50 µM, Pano 5 nM, alone or combined), the “DNA damage (tail moment, comet assay)” value is reported as “increased DNA damage”. In addition, the EC50 was found to be 0.0241 µM in [2]; 0.00697 µM in [3]; 0.0247 µM in data set [4]; 0.014 µM in data set [5]; 0.0289 µM in data set [6]. Further, the “cell proliferation (BrdU incorporation)” value in data set [12] is reported as “but not panobinostat, led to considerable proliferation inhibition”. Further, in data set [18], the “tail moment (comet assay)” value is on record as “significantly increased”. For the same compound, the inhibition at 0.005 µM in [15] (panobinostat alone at the selected concentration (5 nM, Table 1)) was found to be 48.9%.
